In ChEMBL document CHEMBL6120974, “Hydrazide-Based Class I Selective HDAC Inhibitors Completely Reverse Chemoresistance Synergistically in Platinum-Resistant Solid Cancer Cells” (J Med Chem, 2024):
Calls of active or inactive are those of the source. The calls are words filed in the database; no cut-off is given here.

Key:
cells [1] = conditions: Homo sapiens, Cal27CisR, 72 h
Description: Cytotoxicity against cisplatin resistant human Cal27CisR cells assessed as reduction in cell viability incubated for 72 hrs by MTT assay

A2780cisR [2] = assay: Effect on survivin expression in human cisplatin resistant human A2780 cisR cells at 2 uM incubated for 48 hrs by Immunoblotting analysis; type: functional, cell-based
Cal27CisR [3] = assay: Induction of apoptosis in cisplatin resistant human Cal27CisR cells assessed as decrease in BIM expression at 0.316 uM in presence of cisplatin at 16.5 uM preincubated with compound for 24 to 72 hrs prior to addition of cisplatin and measured after 24 hrs by Immunoblotting analysis; type: functional, cell-based; conditions: time 48-96 hrs
CAL-27 [4] = assay: Downregulation of survivin expression in human CAL-27 cells at 0.316 uM incubated for 48 hrs by Immunoblotting analysis; type: functional, cell-based
Cal27CisR [5] = assay: Downregulation of survivin expression in cisplatin resistant human Cal27CisR cells at 0.316 uM incubated for 48 hrs by Immunoblotting analysis; type: functional, cell-based
A2780cisR [6] = assay: Induction of apoptosis in cisplatin resistant human A2780 cisR cells assessed as decrease in Bcl-2 protein level at 2 uM incubated for 48 hrs by Immunoblotting analysis; type: functional, cell-based
A2780 [7] = assay: Downregulation of BAX expression in human A2780 cells at 0.75 uM incubated for 48 hrs by Immunoblotting analysis; type: functional, cell-based
A2780cisR [8] = assay: Induction of apoptosis in cisplatin resistant human A2780 cisR cells assessed as caspase-3/7 activation at 2 uM incubated for 48 hrs by capase3/7 green dye based analysis; type: functional, cell-based
Cal27CisR [9] = assay: Induction of apoptosis in cisplatin resistant human Cal27CisR cells assessed as caspase-3/7 activation at 0.316 uM incubated for 48 hrs by capase3/7 green dye based analysis; type: functional, cell-based
Cal27CisR [10] = assay: Downregulation of survivin expression in cisplatin resistant human Cal27CisR cells at 0.316 uM in presence of cisplatin at 16.5 uM preincubated with compound for 48 hrs prior to addition of cisplatin and measured after 24 hrs by Immunoblotting analysis; type: functional, cell-based; conditions: time 72.0 hrs
CAL-27 [11] = assay: Induction of apoptosis in human CAL-27 cells assessed as caspase-3/7 activation at 0.316 uM incubated for 48 hrs by capase3/7 green dye based analysis; type: functional, cell-based
CAL-27 [12] = assay: cells; conditions: Homo sapiens, CAL-27, 72 h
Description: Cytotoxicity against human CAL-27 cells assessed as reduction in cell viability incubated for 72 hrs by MTT assay

A2780 [13] = assay: Induction of apoptosis in human A2780 cells assessed as increase in apoptotic nuclei at sub-G1 phase at 2 uM in presence of cisplatin at 16 uM preincubated with compound for 48 hrs prior to addition of cisplatin and measured after 24 hrs by flow cytometric analysis; type: functional, cell-based; conditions: time 72.0 hrs
A2780cisR [14] = assay: Downregulation of BAX expression in cisplatin resistant human A2780 cisR cells at 2 uM incubated for 48 hrs by Immunoblotting analysis; type: functional, cell-based
cells [15] = conditions: Homo sapiens, CAL-27
Description: Inhibition of class IIa/8 HDAC (unknown origin) in human CAL-27 cells using Boc-Lys(TFA)-AMC as substrate preincubated with compound for 18 hrs followed by substrate addition and measured after 3 hrs by NOVOstar microplate reader analysis

A2780 [16] = assay: Induction of apoptosis in human A2780 cells assessed as increase in BIM expression at 0.75 uM in presence of cisplatin at 3.5 uM preincubated with compound for 48 hrs prior to addition of cisplatin and measured after 24 hrs by Immunoblotting analysis; type: functional, cell-based; conditions: time 72.0 hrs
Cal27CisR [17] = assay: Induction of apoptosis in cisplatin resistant human Cal27CisR cells assessed as increase in caspase 3/7 activation at 0.316 uM in presence of cisplatin preincubated with compound for 48 hrs co-treated with cisplatin and measured after 24 hrs by capase3/7 green dye based analysis; type: functional, cell-based; conditions: time 72.0 hrs
HL-60 = assay: cells; conditions: Homo sapiens, HL-60, 72 h
Description: Cytotoxicity against human HL-60 cells harboring p53 null assessed as cell viability incubated for 72 hrs by MTT assay

A2780cisR [18] = assay: Induction of DNA damage in cisplatin resistant human A2780 cisR cells assessed as increase in gammaH2AX formation at 2 uM in presence of cisplatin at 16 uM pretreated with compound for 48 hrs prior to addition of cisplatin and measured after 24 hrs by Hoechst 33342 staining based Immunofluorescence analysis; type: functional, cell-based; conditions: time 72.0 hrs
A2780cisR [19] = assay: Induction of cell cycle arrest in cisplatin resistant human A2780 cells assessed as increase in p21 expression at 2 uM incubated for 48 hrs by Western blotting analysis; type: functional, cell-based
A2780 [20] = assay: Downregulation of survivin expression in human A2780 cells at 0.75 uM incubated for 48 hrs by Immunoblotting analysis; type: functional, cell-based
Cal27CisR [21] = assay: Induction of apoptosis in cisplatin resistant human Cal27CisR cells assessed as decrease in survivin expression at 0.316 uM in presence of cisplatin at 16.5 uM preincubated with compound for 24 to 72 hrs prior to addition of cisplatin and measured after 24 hrs by Immunoblotting analysis; type: functional, cell-based; conditions: time 48-96 hrs
Cal27CisR [22] = assay: Induction of DNA damage in cisplatin resistant human Cal27CisR cells assessed as increase in gammaH2AX formation at 0.316 uM in presence of cisplatin at 16.5 uM pretreated with compound for 48 hrs prior to addition of cisplatin and measured after 24 hrs by Hoechst 33342 staining based Immunofluorescence analysis; type: functional, cell-based; conditions: time 72.0 hrs
Cal27CisR [23] = assay: Induction of apoptosis in cisplatin resistant human Cal27CisR cells assessed as apoptotic nuclei at sub-G1 phase at 0.316 uM incubated for 48 hrs by flow cytometric analysis; type: functional, cell-based
cells [24] = conditions: Homo sapiens, A2780
Description: Inhibition of class IIa/8 HDAC (unknown origin) in human A2780 cells using Boc-Lys(TFA)-AMC as substrate preincubated with compound for 18 hrs followed by substrate addition and measured after 3 hrs by NOVOstar microplate reader analysis

A2780 [25] = assay: Induction of cell cycle arrest in human A2780 cells assessed as increase in p21 expression at 0.75 uM incubated for 48 hrs by Western blotting analysis; type: functional, cell-based
A2780cisR [26] = assay: Effect of Bcl-2 protein level in cisplatin resistant human A2780 cisR cells at 2 uM incubated for 48 hrs by Immunoblotting analysis; type: functional, cell-based
A2780 [27] = assay: Effect of Bcl-2 protein level in human A2780 cells at 0.75 uM incubated for 48 hrs by Immunoblotting analysis; type: functional, cell-based

For CCCNNC(=O)c1ccc(CN(CC(=O)NCc2ccccc2)C(=O)c2ccc(N(C)C)cc2)cc1, the IC50 (cells [1]) was 801 nM, the Activity (A2780cisR [2]) was “inactive” and the Activity (Cal27CisR [3]) was “Active”. The Activity (CAL-27 [4]) was “Active”, the Activity (Cal27CisR [5]) was “Active” and the Activity (A2780cisR [6]) was “Active”. The Activity (A2780 [7]) was “Active”, the Activity (A2780cisR [8]) was “Active; Remarkable Activation Observed” and the Activity (Cal27CisR [9]) was “Active; Low Activation Observed”. The Activity (Cal27CisR [10]) was “Active”, the Activity (CAL-27 [11]) was “Active; Low Caspase Activation Observed” and the IC50 (CAL-27 [12]) was 660 nM. For the same molecule, the Activity (A2780 [13]) was “inactive”, the Activity (A2780cisR [14]) was “Active” and the IC50 (cells [15]) was 1020 nM. The Activity (A2780 [16]) was “inactive”, the Activity (Cal27CisR [17]) was “Active” and the IC50 (HL-60) was 431 nM. For the same molecule, the Activity (A2780cisR [18]) was “inactive”, the Activity (A2780cisR [19]) was “Active” and the Activity (A2780 [20]) was “Active”. The Activity (Cal27CisR [21]) was “Active”, the Activity (Cal27CisR [22]) was “Active” and the Activity (Cal27CisR [23]) was “Active; Moderate Percentage Of Apoptotic Nuclei Observed”. The IC50 (cells [24]) was 115000 nM and the Activity (A2780 [25]) was “Active”.

In the case of CCCCNNC(=O)c1ccc(CN(CC(=O)NCc2ccccc2)C(=O)c2ccc(N(C)C)cc2)cc1, the IC50 (cells [1]) is reported as 968 nM, the Activity (A2780cisR [2]) is reported as “inactive” and the Activity (CAL-27 [4]) is reported as “Active”. The Activity (Cal27CisR [5]) was “Active”, the Activity (A2780cisR [26]) was “inactive” and the Activity (A2780cisR [6]) was “Active”. The Activity (A2780 [7]) was “Active”, the Activity (A2780 [27]) was “inactive” and the Activity (A2780cisR [8]) was “Active; Remarkable Activation Observed”. For the same molecule, the Activity (Cal27CisR [9]) was “Active; Low Activation Observed”, the Activity (Cal27CisR [10]) was “Active” and the Activity (CAL-27 [11]) was “Active; Low Caspase Activation Observed”. For the same molecule, the IC50 (CAL-27 [12]) was 688 nM, the Activity (A2780 [13]) was “inactive” and the Activity (A2780cisR [14]) was “Active”. The IC50 (cells [15]) was 1020 nM, the Activity (A2780 [16]) was “inactive” and the Activity (Cal27CisR [17]) was “Active”. The IC50 (HL-60) was 474 nM, the Activity (A2780cisR [18]) was “inactive” and the Activity (A2780cisR [19]) was “Active”. The Activity (A2780 [20]) was “Active”, the Activity (Cal27CisR [22]) was “Active” and the Activity (Cal27CisR [23]) was “Active; Moderate Percentage Of Apoptotic Nuclei Observed”. For the same molecule, the IC50 (cells [24]) was 15900 nM and the Activity (A2780 [25]) was “Active”.
